From US20150291598A1 (NOVARTIS AG, priority 2012, published 2015)

System: P. falciparum (NF54 or 3D7 strain)
Experiment: Assay for P. falciparum proliferation in infected human blood cells (SYBR Green)
Assay type: cell-based, Plasmodium falciparum
Conditions: Plasmodium falciparum, Erythrocyte, 72 h, NF54 or 3D7 infected human erythrocytes, 72 hours; read-out: EC50 (nM), inhibitory efficacy in delaying P. falciparum proliferation in infected human blood cells
Description: Assay for P. falciparum Proliferation in Infected Human Blood Cells
Compounds of the invention can be assayed to measure their capacity to inhibit proliferation of P. falciparum parasitemia in infected red blood cells. This parasite proliferation assay measures the increase in parasite DNA content using a DNA intercalating dye, SYBR Green® (INVITROGEN®) which has a high affinity for double stranded DNA.
NF54 or 3D7 P. falciparum strain is grown in complete culturing media until parasitemia reaches 3% to 8% with O+ human erythrocytes. […] 20 μl of screening media is dispensed into 384 well assay plates. 50 nl of compounds of the invention (in DMSO), including antimalarial controls (mefloquine, pyrimethamine and artemisinin), are then transferred into the assay plates, as well as DMSO alone to serve as a negative control for inhibition. Then 30 μl of a suspension of a NF54 or 3D7 P. falciparum infected erythrocytes in screening media is dispensed into the assay plates such that the final hematocrit is 2.5% with a final parasitemia of 0.3%. The plates are placed in a 37° C. incubator for 72 hours in a low oxygen environment containing 93% N2, 4% CO2, and 3% O2 gas mixture. 10 μl of lysis buffer (saponin, triton-X, EDTA) containing a 10× solution of SYBR Green I® in RPMI media is dispensed into the plates. The plates are lidded and kept at room temperature overnight for the lysis of the infected red blood cells. The fluorescence intensity is measured (excitation […], emission 530 nm) using the Envision™ system (Perkin Elmer).

EC50 [nM]	Structure (SMILES)
5000	CN(C(=O)c1cn2c(-c3ccc(C(F)(F)F)cc3)cnc2cn1)c1cncc(F)c1 [Compound 66, N-(5-fluoropyridin-3-yl)-N-methyl-3-[4-(trifluoromethyl)phenyl]imidazo[1,2-a]pyrazine-6-carboxamide]
168	COc1ccc(-c2cnc3cnc(C(=O)N(C)c4ccc(C#N)cc4)cn23)cc1 [Compound 67, N-(4-cyanophenyl)-3-(4-methoxyphenyl)-N-methylimidazo[1,2-a]pyrazine-6-carboxamide]
> 10000	CN(C(=O)c1cn2c(-c3ccc(C(F)(F)F)cc3)cnc2cn1)c1ccc(-c2nnn(C)n2)cc1 [Compound 68, N-methyl-N-[4-(2-methyl-2H-1,2,3,4-tetrazol-5-yl)phenyl]-3-[4-(trifluoromethyl)phenyl]imidazo[1,2-a]pyrazine-6-carboxamide]
85	COc1ccc(-c2cnc3cnc(C(=O)N(C)c4ccc(F)cc4)cn23)cc1 [Compound 69, N-(4-fluorophenyl)-3-(4-methoxyphenyl)-N-methylimidazo[1,2-a]pyrazine-6-carboxamide]
230	CN(C(=O)c1cn2c(-c3ccc(Cl)cc3)cnc2cn1)c1ccc(Cl)cc1Cl [Compound 70, 3-(4-chlorophenyl)-N-(2,4-dichlorophenyl)-N-methylimidazo[1,2-a]pyrazine-6-carboxamide]
1300	CN(C(=O)c1cn2c(-c3ccc(Cl)c(F)c3)cnc2cn1)c1ccc(C#N)cc1 [Compound 71, 3-(4-chloro-3-fluorophenyl)-N-(4-cyanophenyl)-N-methylimidazo[1,2-a]pyrazine-6-carboxamide]
439	CN(C)CCN(C(=O)c1cn2c(-c3ccc(C(F)(F)F)cc3)cnc2cn1)c1ccc(C#N)cc1 [Compound 72, N-(4-cyanophenyl)-N-[2-(dimethylamino)ethyl]-3-[4-(trifluoromethyl)phenyl]imidazo[1,2-a]pyrazine-6-carboxamide]
624	CN(C(=O)c1cn2c(-c3ccc(C(F)(F)F)cc3)cnc2cn1)c1ccccc1Cl [Compound 73, N-(2-chlorophenyl)-N-methyl-3-[4-(trifluoromethyl)phenyl]imidazo[1,2-a]pyrazine-6-carboxamide]
24	CN(C(=O)c1cn2c(-c3ccc(-c4nnc(N)s4)cc3)cnc2cn1)c1ccc(C#N)cc1 [Compound 74, 3-[4-(5-amino-1,3,4-thiadiazol-2-yl)phenyl]-N-(4-cyanophenyl)-N-methylimidazo[1,2-a]pyrazine-6-carboxamide]
37	CN(C(=O)c1cn2c(-c3ccc(C(C)(F)F)cc3)cnc2cn1)c1ccc(C#N)cc1 [Compound 75, N-(4-cyanophenyl)-3-[4-(1,1-difluoroethyl)phenyl]-N-methylimidazo[1,2-a]pyrazine-6-carboxamide]
116	CN(C)c1ccc(-c2cnc3cnc(C(=O)N(C)c4ccc(C#N)cc4)cn23)cc1 [Compound 77, N-(4-cyanophenyl)-3-[4-(dimethylamino)phenyl]-N-methylimidazo[1,2-a]pyrazine-6-carboxamide]
181	CN(C(=O)c1cn2c(-c3ccc(C(F)(F)F)cc3)cnc2cn1)c1ccc(Cl)nc1 [Compound 78, N-(6-chloropyridin-3-yl)-N-methyl-3-[4-(trifluoromethyl)phenyl]imidazo[1,2-a]pyrazine-6-carboxamide]
214	CN(C(=O)c1cn2c(-c3ccc(C(F)(F)F)cc3)cnc2cn1)c1ccc(F)nc1 [Compound 79, N-(6-fluoropyridin-3-yl)-N-methyl-3-[4-(trifluoromethyl)phenyl]imidazo[1,2-a]pyrazine-6-carboxamide]
258	Cc1ccc(-c2cnc3cnc(C(=O)N(C)c4ccc(Cl)nc4)cn23)cc1 [Compound 80, -(6-chloropyridin-3-yl)-N-methyl-3-(4-methylphenyl)imidazo[1,2-a]pyrazine-6-carboxamide]
382	CN(C(=O)c1cn2c(-c3ccc(Cl)cc3)cnc2cn1)c1ccc(Cl)nc1 [Compound 81, -(4-chlorophenyl)-N-(6-chloropyridin-3-yl)-N-methylimidazo[1,2-a]pyrazine-6-carboxamide]
2340	CN(C(=O)c1cn2c(-c3ccc(N4CCCC4)nc3)cnc2cn1)c1ccc(C#N)cc1 [Compound 82, N-(4-cyanophenyl)-N-methyl-3-[6-(pyrrolidin-1-yl)pyridin-3-yl]imidazo[1,2-a]pyrazine-6-carboxamide]
1570	CN(C(=O)c1cn2c(-c3ccc4c(cnn4C)c3)cnc2cn1)c1ccc(C#N)cn1 [Compound 83, N-(5-cyanopyridin-2-yl)-N-methyl-3-(1-methyl-1H-indazol-5-yl)imidazo[1,2-a]pyrazine-6-carboxamide]

EC50 [nM]	Structure (SMILES)
1280	CN(C(=O)c1cn2c(-c3ccc4c(ccn4C)c3)cnc2cn1)c1ccc(Cl)nc1 [Compound 84, N-(6-chloropyridin-3-yl)-N-methyl-3-(1-methyl-1H-indol-5-yl)imidazo[1,2-a]pyrazine-6-carboxamide]
1100	CN(C(=O)c1cn2c(-c3ccc(OC(F)F)cc3)cnc2cn1)c1ccc(C#N)cn1 [Compound 85, N-(5-cyanopyridin-2-yl)-3-[4-(difluoromethoxy)phenyl]-N-methylimidazo[1,2-a]pyrazine-6-carboxamide]
2010	CN(C(=O)c1cn2c(-c3ccc(C(F)(F)F)cc3)cnc2cn1)c1cccc(F)n1 [Compound 86, N-(6-fluoropyridin-2-yl)-N-methyl-3-[4-(trifluoromethyl)phenyl]imidazo[1,2-a]pyrazine-6-carboxamide]
104	CN(C(=O)c1cn2c(-c3ccc(-n4cccn4)cc3)cnc2cn1)c1ccc(C#N)cc1 [Compound 87, N-(4-cyanophenyl)-N-methyl-3-[4-(1H-pyrazol-1-yl)phenyl]imidazo[1,2-a]pyrazine-6-carboxamide]
1740	COc1ccc(N(C)C(=O)c2cn3c(-c4ccc(C(F)(F)F)cc4)cnc3cn2)cn1 [Compound 88, N-(6-methoxypyridin-3-yl)-N-methyl-3-[4-(trifluoromethyl)phenyl]imidazo[1,2-a]pyrazine-6-carboxamide]
2070	CN(C(=O)c1cn2c(-c3ccc(C(F)(F)F)cc3)cnc2cn1)c1ccc(C#N)cn1 [Compound 89, N-(5-cyanopyridin-2-yl)-N-methyl-3-[4-(trifluoromethyl)phenyl]imidazo[1,2-a]pyrazine-6-carboxamide]
826	COc1ccc(-c2cnc3cnc(C(=O)N(C)c4ccc(C#N)cc4)cn23)cn1 [Compound 90, N-(4-cyanophenyl)-3-(6-methoxypyridin-3-yl)-N-methylimidazo[1,2-a]pyrazine-6-carboxamide]
4300	CN(C(=O)c1cn2c(-c3ccc(C(F)(F)F)cc3)cnc2cn1)c1cnc(Cl)cn1 [Compound 91, -(5-chloropyrazin-2-yl)-N-methyl-3-[4-(trifluoromethyl)phenyl]imidazo[1,2-a]pyrazine-6-carboxamide]
349	CC(C)N(C(=O)c1cn2c(-c3ccc(C(F)(F)F)cc3)cnc2cn1)c1ccc(C#N)cc1 [Compound 92, N-(4-cyanophenyl)-N-(propan-2-yl)-3-[4-(trifluoromethyl)phenyl]imidazo[1,2-a]pyrazine-6-carboxamide]
4640	CN(C(=O)c1cn2c(-c3ccc(C(F)(F)F)cc3)cnc2cn1)c1ncc(Cl)cn1 [Compound 93, N-(5-chloropyrimidin-2-yl)-N-methyl-3-[4-(trifluoromethyl)phenyl]imidazo[1,2-a]pyrazine-6-carboxamide]
> 10000	CN(C(=O)c1cn2c(-c3ccc(C(F)(F)F)cc3)cnc2cn1)c1ccc(Cl)nn1 [Compound 94, N-(6-chloropyridazin-3-yl)-N-methyl-3-[4-(trifluoromethyl)phenyl]imidazo[1,2-a]pyrazine-6-carboxamide]
1050	CN(C(=O)c1cn2c(-c3ccc(C(F)F)cc3)cnc2cn1)c1ccc(C#N)cn1 [Compound 95, N-(5-cyanopyridin-2-yl)-3-[4-(difluoromethyl)phenyl]-N-methylimidazo[1,2-a]pyrazine-6-carboxamide]
9990	CN(C(=O)c1cn2c(-c3ccc(C(F)(F)F)cc3)cnc2cn1)c1ccc(Br)nn1 [Compound 96, N-(6-bromopyridazin-3-yl)-N-methyl-3-[4-(trifluoromethyl)phenyl]imidazo[1,2-a]pyrazine-6-carboxamide]
4510	CN(C(=O)c1cn2c(-c3ccc(C(F)(F)F)cc3)cnc2cn1)c1cnc(Br)cn1 [Compound 97, N-(5-bromopyrazin-2-yl)-N-methyl-3-[4-(trifluoromethyl)phenyl]imidazo[1,2-a]pyrazine-6-carboxamide]
1500	CN(C(=O)c1cn2c(-c3ccc(C(N)=O)cc3)cnc2cn1)c1ccc(C#N)cn1 [Compound 98, 3-(4-carbamoylphenyl)-N-(5-cyanopyridin-2-yl)-N-methylimidazo[1,2-a]pyrazine-6-carboxamide]
3880	CN(C(=O)c1cn2c(-c3ccc(C(F)(F)F)cc3)cnc2cn1)c1ccccn1 [Compound 99, N-methyl-N-(pyridin-2-yl)-3-[4-(trifluoromethyl)phenyl]imidazo[1,2-a]pyrazine-6-carboxamide]

Same assay, conditions: Plasmodium falciparum, Erythrocyte, infected human red blood cells; read-out: EC50, P. falciparum Proliferation Assay

EC50 [nM]	Structure (SMILES)
< 50	CN(C)CCN(C(=O)c1cn2c(-c3ccc(C(F)(F)F)cc3)cnc2cn1)c1ccc(C#N)cc1 [Compound 72, N-(4-cyanophenyl)-N-[2-(dimethylamino)ethyl]-3-[4-(trifluoromethyl)phenyl]imidazo[1,2-a]pyrazine-6-carboxamide]
